Columns and labels:
[1] = test system: TdT; test: Enzymatic DNA synthesis reactions (N+20 nucleotide additions with TdT, analysed by next-generation sequencing); type: biochemical
Procedure: Enzymatic N+20 nucleotide addition reactions were conducted on polymer-coated silica paramagnetic particles. Enzymatic DNA synthesis was performed on a ThermoFisher KingFisher sample purification system. Enzymatic DNA synthesis consists of cycles of addition solution (containing TdT, reversibly terminated nucleotide and a near-neutral extension solution comprising one or more buffers (e.g., Tris or cacodylate), one or more salts (e.g., Na^+, K^+, Mg^2+, Mn^2+, Cu^2+, Zn^2+, Co^2+, etc. all with appropriate counterions, such as Cl^−) and inorganic pyrophosphatase (e.g., the Saccharomyces cerevisiae homolog)), wash 1 solution (HEPES+5 mM EDTA at pH 8.00), deblock solution (sodium nitrite at pH 5.5), and wash 2 solution (HEPES at pH 7.20). The following sequences […] (Oligo A) and […] (Oligo B) were synthesized in triplicate. DNA products were analysed by next-generation sequencing on an Illumina MiniSeq. Data showing the percent perfect sequences are shown in the following plots for synthesis of these sequences with reversibly terminated dG and reversibly terminated 8-aza-dG; other nucleotides are reversibly terminated dA, dC or dT.

[2] = Stability tests of modified 2′-deoxyguanosines in NDS buffer vs. 2′-deoxyguanosine (nitrite-mediated deamination); type: physicochemical; settings: for stability in NDS compared with 2′-deoxyguanosine: nitrite deprotection solution (sodium nitrite in 1M sodium acetate, pH 5.5), room temperature, over 4 days, HPLC or LC/MS
Procedure: Stability Tests of Modified 2′-Deoxyguanosines in NDS Buffer vs. 2′-Deoxyguanosine
Nitrite deprotection solution (NDS) was prepared from sodium nitrite (380 mg, 5.5 mmol) and 1M pH 5.5 sodium acetate (7.868 mL) and adjusted to pH 5.5 with 10M sodium hydroxide. Samples of nucleoside (˜0.5 mg) were dissolved in 1 mL aliquots of this buffer. The samples were analysed by HPLC or LC/MS using Method 1 or Method 2 immediately after making up the samples and at intervals over 4 days while stored at room temperature alongside reference samples of 2′-deoxyguanosine. 2′-Deoxyguanosine gave an approximately 8:1 mixture of 2′-deoxyxanthosine and Peak (3) with the same mass as 2′-deoxyxanthosine. 7-Deaza-2′-deoxyguanosine gave 7-deaza-2′-deoxyxanthosine as one component of a complex mixture of products. Other nucleosides gave products with masses corresponding to the products of substitution of NH2 with OH (increase of 1 Da) assigned to the 2′-deoxyxanthosine analogues. Data for 7-deaza-2′-deoxyguanosine (X=CH, Y=CH), 7-deaza-7-trifluoromethyl-2′-deoxyguanosine (X=CCF3, Y=CH), 7-deaza-7-cyano-2′-deoxyguanosine, 7-deaza-7-methanesulfonyl-2′-deoxyguanosine (X=CSO2Me, Y=CH) and 8-aza-2′-deoxyguanosine (X=N, Y=N) for experiments run in parallel with 2′-deoxyguanosine (X=CH, Y=N) are shown in the plots below.

Row | Molecule | stability in NDS compared with 2′-deoxyguanosine [2] | also measured
1 | 3′-(O)-Acetoxime-8-Aza-2′-Deoxyguanosine 5′-Triphosphate [reversibly terminated 8-aza-dG] |  | efficiency of additions of any nucleotide to 8-aza-dG terminated sequences compared with dG terminated sequences ([1]; TdT addition, Oligo A and Oligo B): less efficient; percent perfect sequences compared with products made with dG ([1]; synthesis of Oligo A and Oligo B in triplicate, Illumina MiniSeq): lower level of percent perfect sequences
2 | CS(=O)(=O)c1cn(C2CC(O)C(CO)O2)c2nc(N)[nH]c(=O)c12 (stereo not shown) [7-(MethanesulfonyI)-7-Deaza-2′-Deoxyguanosine] | slightly more stable | 
3 | Nc1nc2c(ccn2[C@H]2C[C@H](O)[C@@H](CO)O2)c(=O)[nH]1 [7-Deaza-2′-deoxyguanosine, reference compound] | much less stable | 
4 | Nc1nc2c(c(C(F)(F)F)cn2[C@H]2C[C@H](O)[C@@H](CO)O2)c(=O)[nH]1 [7-Deaza-7-Trifluoromethyl-2′-Deoxyguanosine] | slightly more stable | 
5 | N#Cc1cn([C@H]2C[C@H](O)[C@@H](CO)O2)c2nc(N)[nH]c(=O)c12 [7-deaza-7-cyano-2′-deoxyguanosine, 7-Deaza-7-Cyano-2′-Deoxyguanosine] | slightly more stable | 
6 | Nc1nc2c(nnn2[C@H]2C[C@H](O)[C@@H](CO)O2)c(=O)[nH]1 [8-Aza-2′-deoxyguanosine] |  | factor by which more stable in NDS than 2′-deoxyguanosine ([2]; nitrite deprotection solution pH 5.5, room temperature, run in parallel with 2′-deoxyguanosine): 4.2

— patent US20240150389A1, “MODIFIED GUANINES” (NUCLERA NUCLEICS LTD, priority 2021, published 2024)
